Patent US20100215775A1, “USE OF C10-C14-ALKANEDIOLS IN THE PREPARATION OF A COMPOSITION FOR THE PROPHYLAXIS AND/OR TREATMENT OF MALASSEZIA-INDUCED DANDRUFF FORMATION” (SYMRISE GmbH & Co. KG, priority 2006, published 2010)
Values after ≈ are worked out from the molar mass of the structure shown.

Tested on: Malassezia furfur strain DSM6171
Assay: MIC value measurement by agar dilution method against Malassezia furfur
Assay type: cell-based, Malassezia furfur (synonym: Pityrosporum ovale)
Details: for factor by which activity is greater than that of 1,2-octanediol: ratio of MIC values versus 1,2-octanediol (MIC 225 ppm); for factor by which activity is greater than that of 1,2-octanediol / MIC: Malassezia furfur; for MIC: DSM6171, 72 h
Description: The antimicrobial action of the alkane-1,2-diols against Malassezia furfur was determined by means of the agar dilution method in accordance with DIN 58 940/ICS and DIN 58 944/ICS. Malassezia furfur strain DSM6171 was used as the test organism. Petri dishes having a diameter of 9 cm and containing 8.7 ml of freshly prepared Mueller-Hinton agar (Merck, art. 1.05437) kept liquid at 50° C. and containing 3% Tween 80 (Merck, art. 8.2217) were used. In order to prepare the test concentrations, ethanolic stock solutions of the alkane-1,2-diol samples were diluted with 96% ethanol until the following final test concentrations of the alkane-1,2-diols in the Mueller-Hinton agar were present: 25,000 ppm, 12,500 ppm, 6300 ppm, 3600 ppm, 1800 ppm, 1100 ppm, 900 ppm, 450 ppm, 225 ppm, 112 ppm, 56 ppm, 28 ppm, 14 ppm, 7 ppm, 4 ppm. 2 agar plates were cast per test concentration and nutrient medium. After solidification and drying (about 1 hour at 37° C.), the test plates were inoculated punctually with in each case 1 μl of the Malassezia furfur (DSM 6171-2.8×10^7 KBE/ml) test organism suspensions. The inoculated plates were subsequently incubated for 72 hours at 30° C. and then evaluated. The lowest active ingredient concentration at which, macroscopically, no growth is present was regarded as the MIC (minimum inhibitory concentration). The MIC values of the alkane-1,2-diols listed in Table 1 were determined in accordance with the general test conditions.

[1] = agar dilution, Mueller-Hinton agar with 3% Tween 80, 72 hours at 30° C., lowest concentration with no macroscopic growth

SMILES | MIC [1] [µg/mL] | MIC value [1] [ppm] | factor by which activity is greater than that of 1,2-octanediol
CCCCCCCCC(O)CO (stereo not shown) [1,2-Decanediol] |  |  | about 8
CCCCCCCCCCCCCCCCC(O)CO (stereo not shown) [1,2-Octadecanediol] | > 1100 | >1100 | 
CCCCCCCCCCC(O)CO (stereo not shown) [1,2-Dodecanediol] |  |  | about 16

The next lines start with results.

MIC [1] [µg/mL] | MIC value [1] [ppm] | SMILES | factor by which activity is greater than that of 1,2-octanediol
12500 (≈ 106 mM) |  | CCCCC(O)CO (stereo not shown) [1,2-Hexanediol] | 
25000 (≈ 240 mM) |  | CCCC(O)CO (stereo not shown) [1,2-Pentanediol] | 
< 7 |  | CCCCCCCCCCCCC(O)CO (stereo not shown) [1,2-Tetradecanediol] | at least 32
1100 (≈ 4.26 mM) |  | CCCCCCCCCCCCCCC(O)CO (stereo not shown) [1,2-Hexadecanediol] | 
225 (≈ 1.54 mM) |  | CCCCCCC(O)CO (stereo not shown) [1,2-Octanediol] | 
